Experimental data as given in patent US20220017484A1, “INHIBITOR OF BRUTON TYROSINE KINASE” (BEIJING RECIPROCAPHARMACEUTICALS CO., LTD., priority 2018, published 2022).

Assays:
OCI-LY7 cells = assay: Cell viability assay (CellTiter-Glo, 72 h); format: cell-based; settings: Homo sapiens, read-out: Results from inhibition of OCI-LY7 cells (IC50)
Procedure: An in vitro cell viability assay was conducted using the compounds of Examples 1-50 following the steps below:
1. After OCI-LY7 cells were recovered, they were cultured at 37° C., 5% CO2, and 95% humidity.
2. For the compounds of Examples 1-50, 8 compound solutions at different concentrations were prepared, respectively. 50 μL of the compound solution at each concentration was added to a 96-well black plate.
3. The cell concentration was adjusted to about 30,000 cells/mL. 100 μL of cell suspension was added to the 96-well plate, and mixed well. The final cell density was about 3,000 cells/well.
4. The 96-well plate was placed at 37° C., 5% CO2, and 95% humidity for 72 h.
5. The cell survival rate was measured by the method of CellTiter-Glo® Luminescent Cell Viability Assay (Promega, Cat #G7572). The fluorescence data were read on a microplate reader (EnVision™, a multi-function microplate detector, PerkinElmer).
6. The obtained fluorescence data were analyzed using GraphPad Prism software. The cell survival rate was calculated for each example compound at each concentration, and the IC50 interval of each example compound was obtained.

Btk = Btk (Homo sapiens, UniProt Q06187); assay: Analysis of in vitro inhibitory activity of Btk (cell-free TR-FRET kinase assay); format: biochemical; settings: for IC50: cell-free TR-FRET, ATP at Km, 1 h, read-out: Efficacy (Btk IC50); for inhibitory effects against Btk (in words): summary of Table 1 efficacy data
Procedure: In a cell-free kinase assay, the method described below or a similar method was used to determine the half inhibitory concentration (IC50) of the compound of the present invention on Btk.
Btk kinase activity was determined using a time-resolved fluorescence resonance energy transfer (TR-FRET) methodology. Measurements were performed in a reaction volume of 50 μL using 96-well assay plates. […] The reaction was quenched by the addition of 1.2 equivalents of EDTA (relative to divalent cation) in […] of 1× Lance buffer (Perkin-Elmer). Streptavidin-APC (Perkin-Elmer) and Eu-labeled p-Tyr100 antibody (Perkin-Elmer) in 1× Lance buffer were added in a volume of 25 μL to give final concentrations of 100 nM and 2.5 nM, respectively. The mixture was allowed to incubate for 1 h. The TR-FRET signal was measured on a multimode plate reader at an excitation wavelength (λEx) of 330 nm and detection wavelengths (λEm) of 615 and 665 nm. The activity was determined by the ratio of fluorescence at 665 nm to that at 615 nm. For each compound, the enzyme activity was measured in the presence of different concentrations of the compound. Negative control reactions were performed in the absence of inhibitor in replicates of six, and two no-enzyme controls were used to determine baseline fluorescence levels. IC50 was obtained by fitting using the program Batch Ki (Kuzmic, et al. (2000), Anal. Biochem. 286:45-50).
The Example compounds 1-50 of the present invention were synthesized according to the above Synthetic Schemes I to VII. In the analysis of in vitro inhibitory activity of Btk, the IC50 values of the Example compounds 1-50 of the present invention were determined. The IC50 values are given according to the interval of the IC50 value, where “+++” means IC50<100 nM; “++” means 100 nM≤IC50<1000 nM; and “+” means 1000 nM≤IC50<10000 nM.

Chain of Btk (Q06187 whole entry): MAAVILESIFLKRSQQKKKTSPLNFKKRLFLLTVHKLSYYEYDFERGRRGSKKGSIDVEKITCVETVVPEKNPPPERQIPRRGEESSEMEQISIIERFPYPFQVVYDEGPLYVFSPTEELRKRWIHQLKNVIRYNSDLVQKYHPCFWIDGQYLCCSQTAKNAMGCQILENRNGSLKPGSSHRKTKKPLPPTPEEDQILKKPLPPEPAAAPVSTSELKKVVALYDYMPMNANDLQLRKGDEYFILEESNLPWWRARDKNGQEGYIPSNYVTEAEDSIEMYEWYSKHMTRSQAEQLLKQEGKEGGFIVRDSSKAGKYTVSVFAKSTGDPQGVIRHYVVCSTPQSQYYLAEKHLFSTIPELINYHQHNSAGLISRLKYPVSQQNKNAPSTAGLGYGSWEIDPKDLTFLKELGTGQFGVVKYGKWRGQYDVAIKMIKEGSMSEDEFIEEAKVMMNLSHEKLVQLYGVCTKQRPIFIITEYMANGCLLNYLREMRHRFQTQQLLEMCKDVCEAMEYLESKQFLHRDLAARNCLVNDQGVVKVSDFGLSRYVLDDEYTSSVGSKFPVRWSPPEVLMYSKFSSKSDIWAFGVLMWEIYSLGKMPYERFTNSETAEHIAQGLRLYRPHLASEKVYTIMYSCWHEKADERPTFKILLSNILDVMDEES

Compound	IC50 (OCI-LY7 cells) [nM]	IC50 (Btk) [nM]	inhibitory effects against Btk (in words) (Btk)
CCC(=O)Nc1cccc(Nc2ncc3cc(-c4c(C)cc[nH]c4=O)ccc3n2)c1 [Example 3]	< 500	< 100	
C/C=C/C(=O)Nc1cccc(Nc2ncc3cc(-c4c(C)cc[nH]c4=O)ccc3n2)c1 [Example 4]	< 500	< 100	
Cc1cc[nH]c(=O)c1-c1ccc2nc(Nc3cccc(NC(=O)/C=C/CN(C)C)c3)ncc2c1 [Example 5]	< 500	< 100	particularly excellent inhibitory effects
C=CC(=O)Nc1cc(Nc2ncc3cc(-c4c(C)cc[nH]c4=O)ccc3n2)ccc1OCCOC [Example 6]	< 500	< 100	
Cc1cc[nH]c(=O)c1-c1ccc2nc(Nc3cccc(NC(=O)/C=C/CN4CCCCC4)c3)ncc2c1 [Example 7]	< 500	< 100	
Cc1cc[nH]c(=O)c1-c1ccc2nc(Nc3cccc(NC(=O)/C=C/CN4CCOCC4)c3)ncc2c1 [Example 8]	< 500	< 100	
Cc1cc[nH]c(=O)c1-c1ccc2nc(Nc3cccc(NC(=O)CN)c3)ncc2c1 [Example 9]	500 to 2500	< 100	
C=CC(=O)NCC(=O)Nc1cccc(Nc2ncc3cc(-c4c(C)cc[nH]c4=O)ccc3n2)c1 [Example 10]	< 500	< 100	
Cc1cc[nH]c(=O)c1-c1ccc2nc(Nc3cccc(NC(=O)CCN(C)C)c3)ncc2c1 [Example 11]	< 500	< 100	
Cc1ccn(-c2cccc(C(F)(F)F)c2)c(=O)c1-c1ccc2nc(Nc3cccc(N)c3)ncc2c1 [Example 12]	< 500	1000 to 10000	
C=CC(=O)Nc1cccc(Nc2ncc3cc(-c4c(C)ccn(-c5cccc(C(F)(F)F)c5)c4=O)ccc3n2)c1 [Example 13]	< 500	100 to 1000	
Cc1ccn(-c2ccc(N3CCOCC3)cc2)c(=O)c1-c1ccc2nc(Nc3cccc(N)c3)ncc2c1 [Example 14]	< 500	100 to 1000	
C=CC(=O)Nc1cccc(Nc2ncc3cc(-c4c(C)ccn(-c5ccc(N6CCOCC6)cc5)c4=O)ccc3n2)c1 [Example 15]	< 500	100 to 1000	
Cc1ccn(C)c(=O)c1-c1ccc2nc(Nc3cccc(N)c3)ncc2c1 [Example 16]	500 to 2500	1000 to 10000	
C=CC(=O)Nc1cccc(Nc2ncc3cc(-c4c(C)ccn(C)c4=O)ccc3n2)c1 [Example 17]	500 to 2500	100 to 1000	
Cc1cc[nH]c(=O)c1-c1ccc2nc(Nc3cccc(NC(=O)[C@@H](N)C(C)C)c3)ncc2c1 [Example 18]	< 500	< 100	

Compound	IC50 (OCI-LY7 cells) [nM]	IC50 (Btk) [nM]	inhibitory effects against Btk (in words) (Btk)
C=CC(=O)N[C@H](C(=O)Nc1cccc(Nc2ncc3cc(-c4c(C)cc[nH]c4=O)ccc3n2)c1)C(C)C [Example 19]	< 500	< 100	particularly excellent inhibitory effects
Cc1cc[nH]c(=O)c1-c1ccc2nc(Nc3cccc(NC(=O)[C@@H]4CCCN4)c3)ncc2c1 [Example 20]	500 to 2500	100 to 1000	
C=CC(=O)N1CCC[C@H]1C(=O)Nc1cccc(Nc2ncc3cc(-c4c(C)cc[nH]c4=O)ccc3n2)c1 [Example 21]	< 500	< 100	
CCNc1cccc(Nc2ncc3cc(-c4c(C)cc[nH]c4=O)ccc3n2)c1 [Example 25]	< 500	< 100	
C=CC(=O)N(CC)c1cccc(Nc2ncc3cc(-c4c(C)ccn(C(=O)OCC)c4=O)ccc3n2)c1 [Example 28]	< 500	< 100	
C=CC(=O)N(CC)c1cccc(Nc2ncc3cc(-c4c(C)ccn(C(C)=O)c4=O)ccc3n2)c1 [Example 29]	500 to 2500	100 to 1000	
C=CC(=O)N(CC)c1cccc(Nc2ncc3cc(-c4c(C)ccn(C(=O)N(C)C)c4=O)ccc3n2)c1 [Example 30]	≥ 2500	100 to 1000	
C=CC(=O)N(CC)c1cccc(Nc2ncc3cc(-c4c(C)ccn(C(=O)OCc5ccccc5)c4=O)ccc3n2)c1 [Example 31]	< 500	< 100	
C=CC(=O)N(CC)c1cccc(Nc2ncc3cc(-c4c(C)ccn(-c5ncco5)c4=O)ccc3n2)c1 [Example 32]	500 to 2500	100 to 1000	
C=CC(=O)Nc1cc(Nc2ncc3cc(-c4c(C)cc[nH]c4=O)ccc3n2)ccc1OC [Example 36]	< 500	< 100	
C=CC(=O)N(CC)c1cc(Nc2ncc3cc(-c4c(C)cc[nH]c4=O)ccc3n2)ccc1OC [Example 37]	< 500	< 100	particularly excellent inhibitory effects
C=CC(=O)N(CC)c1cc(Nc2ncc3cc(-c4c(C)cc[nH]c4=O)ccc3n2)ccc1F [Example 39]	500 to 2500	< 100	
C=CC(=O)N(CC)c1cc(Nc2ncc3cc(-c4c(C)cc[nH]c4=O)ccc3n2)ccc1C [Example 40]	500 to 2500	< 100	
Cc1cc[nH]c(=O)c1-c1ccc2nc(Nc3ccc4c(c3)NCCO4)ncc2c1 [Example 41]	< 500	< 100	
C=CC(=O)N1CCOc2ccc(Nc3ncc4cc(-c5c(C)cc[nH]c5=O)ccc4n3)cc21 [Example 42]	500 to 2500	< 100	

The next lines start with results.

IC50 (OCI-LY7 cells) [nM]	IC50 (Btk) [nM]	Compound	inhibitory effects against Btk (in words) (Btk)
< 500	< 100	Cc1cc[nH]c(=O)c1-c1ccc2nc(Nc3cccc(N)c3)ncc2c1 [Example 1]	
< 500	< 100	C=CC(=O)Nc1cccc(Nc2ncc3cc(-c4c(C)cc[nH]c4=O)ccc3n2)c1 [Example 2]	particularly excellent inhibitory effects
< 500	< 100	CNc1cccc(Nc2ncc3cc(-c4c(C)cc[nH]c4=O)ccc3n2)c1 [Example 22]	
< 500	< 100	Cc1cc[nH]c(=O)c1-c1ccc2nc(Nc3cccc(N(C)C(=O)/C=C/CN(C)C)c3)ncc2c1 [Example 24]	particularly excellent inhibitory effects
< 500	< 100	C=CC(=O)N(c1cccc(Nc2ncc3cc(-c4c(C)cc[nH]c4=O)ccc3n2)c1)C(C)C [Example 27]	
< 500	< 100	CC#CC(=O)N(CC)c1cccc(Nc2ncc3cc(-c4c(C)cc[nH]c4=O)ccc3n2)c1 [Example 33]	particularly excellent inhibitory effects
500 to 2500	< 100	CCN(C(=O)/C=C/CN(C)C)c1cccc(Nc2ncc3cc(-c4c(C)cc[nH]c4=O)ccc3n2)c1 [Example 34]	particularly excellent inhibitory effects
< 500	< 100	C=C(F)C(=O)N(CC)c1cccc(Nc2ncc3cc(-c4c(C)cc[nH]c4=O)ccc3n2)c1 [Example 35]	
< 500	< 100	C=CC(=O)N(CCOC)c1cccc(Nc2ncc3cc(-c4c(C)cc[nH]c4=O)ccc3n2)c1 [Example 38]	particularly excellent inhibitory effects
≥ 2500	< 100	C=CC(=O)N(CCN(C)C)c1cccc(Nc2ncc3cc(-c4c(C)cc[nH]c4=O)ccc3n2)c1 [Example 43]	
< 500	< 100	[2H]C([2H])([2H])N(C(=O)C=C)c1cccc(Nc2ncc3cc(-c4c(C)cc[nH]c4=O)ccc3n2)c1 [Example 44]	particularly excellent inhibitory effects
< 500	< 100	[2H]C([2H])=C([2H])C(=O)N(C)c1cccc(Nc2ncc3cc(-c4c(C)cc[nH]c4=O)ccc3n2)c1 [Example 45]	particularly excellent inhibitory effects
< 500	< 100	[2H]C([2H])=C([2H])C(=O)N(c1cccc(Nc2ncc3cc(-c4c(C)cc[nH]c4=O)ccc3n2)c1)C([2H])([2H])[2H] [Example 46]	particularly excellent inhibitory effects
< 500	< 100	[2H]C([2H])([2H])C([2H])([2H])N(C(=O)C=C)c1cccc(Nc2ncc3cc(-c4c(C)cc[nH]c4=O)ccc3n2)c1 [Example 47]	
